Reference: patent US20160242416A1, “FUNGICIDAL ISOXAZOLINE CARBINOLS” (E I DU PONT DE NEMOURS AND COMPANY, priority 2015, published 2016)

Tests used:
[1] = test system: Erysiphe graminis f sp. tritici; assay: Test G: wheat powdery mildew, preventive spray on wheat seedlings; conditions: 10 ppm; wheat powdery mildew; 100 = 100% disease control, 0 = no control
[2] = test system: Puccinia recondita f sp. tritici; assay: Test F: wheat leaf rust, preventive spray on wheat seedlings; conditions: 10 ppm; wheat leaf rust; 100 = 100% disease control, 0 = no control
Excerpt: (§1) General protocol for preparing test solutions for Tests A-G: the test compounds were first dissolved in acetone in an amount equal to 3% of the final volume and then suspended at the desired concentration (in ppm) in acetone and purified water (50/50 mix by volume) containing 250 ppm of the surfactant PEG400 (polyhydric alcohol esters). The resulting test suspensions were then used in Tests A-G. Compounds were sprayed at a concentration of 50 ppm (*) or 10 ppm to the point of run-off on the test plants, the equivalent of a rate of 200 g/ha or 40 g/ha, respectively.
The test solution was sprayed to the point of run-off on wheat seedlings. The following day the seedlings were inoculated with a spore suspension of Puccinia recondita f sp. tritici; (the causal agent of wheat leaf rust) and incubated in a saturated atmosphere at 20° C. for 24 h, and then moved to a growth chamber at 20° C. for 6 days, after which time visual disease ratings were made.
A dash (-) indicates no test results. Compounds with an asterisks (*) were applied at a concentration of 50 ppm, otherwise test solutions were applied at 10 ppm.

[3] = test system: Botrytis cinerea; assay: Test B: gray mold, preventive spray on tomato seedlings; conditions: 10 ppm; gray mold on tomato; 100 = 100% disease control, 0 = no control
[4] = test system: Stagonospora nodorum; assay: Test D: wheat glume blotch, preventive spray on wheat seedlings; conditions: 10 ppm; wheat glume blotch; 100 = 100% disease control, 0 = no control
Excerpt: as §1
The test solution was sprayed to the point of run-off on wheat seedlings. The following day the seedlings were inoculated with a spore suspension of Stagonospora nodorum (also known as Septoria nodorum; the causal agent of wheat glume blotch) and incubated in a saturated atmosphere at 20° C. for 48 h, and then moved to a growth chamber at 20° C. for 6 days, after which time visual disease ratings were made.
Compounds with an asterisks (*) were applied at a concentration of 50 ppm, otherwise test solutions were applied at 10 ppm.

[5] = test system: Zymoseptoria tritici; assay: Test E: wheat leaf blotch, preventive spray on wheat seedlings; conditions: 10 ppm; wheat leaf blotch; 100 = 100% disease control, 0 = no control

CC(C)(C)C(O)(Cn1cncn1)C1=NOC(COc2ccc3c(c2)OCO3)C1 (single isomer, unassigned) [Compound 45]
Test G rating (% disease control) [1]: 87%
Test F rating (% disease control) [2]: 67%
Test B rating (% disease control) [3]: 70%
Test D rating (% disease control) [4]: 99%
Test E rating (% disease control) [5]: 0%

CC(C)(C)C(O)(Cn1cncn1)C1=NOC(Cn2cc(Br)cn2)C1 (single isomer, unassigned) [Compound 42]
Test G rating (% disease control) [1]: 0%
Test F rating (% disease control) [2]: 9%
Test B rating (% disease control) [3]: 0%
Test D rating (% disease control) [4]: 42%
Test E rating (% disease control) [5]: 0%

OC(Cn1cncn1)(C1=NOC(c2ccc(Cl)cc2)C1)c1cccc(Oc2ccccc2)c1 (single isomer, unassigned) [Compound 110]
Test G rating (% disease control) [1]: 48%
Test F rating (% disease control) [2]: 21%
Test B rating (% disease control) [3]: 0%
Test D rating (% disease control) [4]: 0%
Test E rating (% disease control) [5]: 72%

CC(C)(C)CC1CC(C(O)(Cn2cncn2)C(C)(C)C)=NO1 (single isomer, unassigned) [Compound 77]
Test G rating (% disease control) [1]: 13%
Test F rating (% disease control) [2]: 0%
Test B rating (% disease control) [3]: 0%
Test D rating (% disease control) [4]: 0%
Test E rating (% disease control) [5]: 0%

CC(C)(C)C(O)(Cn1cncn1)C1=NOC(COc2ncc(Cl)cn2)C1 (single isomer, unassigned) [Compound 100]
Test G rating (% disease control) [1]: 92%
Test F rating (% disease control) [2]: 79%
Test B rating (% disease control) [3]: 0%
Test D rating (% disease control) [4]: 77%
Test E rating (% disease control) [5]: 0%

CC1(C(O)(Cn2cncn2)C2=NOC(c3ccc(Cl)cc3)C2)CC1 (single isomer, unassigned) [Compound 126]
Test G rating (% disease control) [1]: 99%
Test F rating (% disease control) [2]: 100%
Test B rating (% disease control) [3]: 97%
Test D rating (% disease control) [4]: 100%
Test E rating (% disease control) [5]: 89%

OC(Cn1cncn1)(C1=NOC(COc2ccc(Cl)nc2)C1)c1ccc(Cl)cc1 (single isomer, unassigned) [Compound 102]
Test G rating (% disease control) [1]: 69%
Test F rating (% disease control) [2]: 18%
Test B rating (% disease control) [3]: 0%
Test D rating (% disease control) [4]: 0%
Test E rating (% disease control) [5]: 0%

CC(C)(C)C(O)(Cn1cncn1)C1=NOC(Cc2ccccc2)C1 (single isomer, unassigned) [Compound 86]
Test G rating (% disease control) [1]: 98%
Test F rating (% disease control) [2]: 74%
Test B rating (% disease control) [3]: 72%
Test D rating (% disease control) [4]: 99%
Test E rating (% disease control) [5]: 1%

OC(Cn1cncn1)(C1=NOC(COc2ccc(Cl)cn2)C1)c1ccc(Cl)cc1 (single isomer, unassigned) [Compound 164]
Test G rating (% disease control) [1]: 100%
Test F rating (% disease control) [2]: 100%
Test B rating (% disease control) [3]: 0%
Test D rating (% disease control) [4]: 95%
Test E rating (% disease control) [5]: 96%

CCC(C)(C)C(O)(Cn1cncn1)C1=NOC(COc2ccc(Br)cc2)C1 (single isomer, unassigned) [Compound 11]
Test G rating (% disease control) [1]: 99%
Test F rating (% disease control) [2]: 100%
Test B rating (% disease control) [3]: 81%
Test D rating (% disease control) [4]: 100%
Test E rating (% disease control) [5]: 88%

Cn1nc(C(F)(F)F)cc1OCC1CC(C(O)(Cn2cncn2)C(C)(C)C)=NO1 (single isomer, unassigned) [Compound 47]
Test G rating (% disease control) [1]: 84%
Test F rating (% disease control) [2]: 76%
Test B rating (% disease control) [3]: 19%
Test D rating (% disease control) [4]: 0%
Test E rating (% disease control) [5]: 3%

OC(Cn1cncn1)(C1=NOC(c2ccc(C(F)(F)F)cc2)C1)c1ccc(C(F)(F)F)cc1 (single isomer, unassigned) [Compound 153]
Test G rating (% disease control) [1]: 100%
Test F rating (% disease control) [2]: 100%
Test B rating (% disease control) [3]: 0%
Test D rating (% disease control) [4]: 0%
Test E rating (% disease control) [5]: 93%
